According to patent publication US20250197399A1, “COMPOUNDS, COMPOSITIONS, AND METHODS” (Tenvie Therapeutics, Inc., priority 2022, published 2025):
Read-outs that look alike come from different tables or passages of the source.

System: NLRP3
Test: IL-1β secretion assay in PMA-differentiated, LPS/nigericin-stimulated THP-1 cells (ELISA)
Type: cell-based
Conditions: 25 ng/mL LPS then nigericin, IL-1β in supernatant
Method: Compounds as provided herein were tested in the following assay. Cell culture medium employed contained RPMI 1640 medium (89%), FBS (10%), Pen/Strep (1%), and 2-mercaptoethanol (0.05 mM). Freezing medium was made up of 90% FBS and 10% DMSO. THP-1 cells were removed from the liquid nitrogen and placed into a 37° C. water bath to thaw, until signs of ice dissipated. The cells were then added to 9 mL of warm cell culture medium and centrifuged for 5 minutes at 1000 rpm. The supernatant was discarded, and the cells were resuspended in new cell culture medium. THP-1 cells were then split and cultured in the cell culture medium, being passaged every 2-3 days with the cell density will be maintained between 5×10^5 and 1.5×10^6 viable cells/mL.
PMA was dissolved in DMSO to make a stock solution at 5 mg/ml and stored in 10 μl aliquots at −20° C. for single use. PMA is added to normal growth medium. LPS was diluted with 1 mL of water solution to provide a 1 mg/mL stock solution and stored in 15 μL aliquots at −20° C. for single use. Nigericin is diluted in ice cold 100% ethanol to 5 mg/ml (6.7 mM) and stored in 75 μL aliquots at −20° C. for single use. Serum-free media contains RPMI 1640 medium (99%), Pen/Strep (1%), and 2-mercaptoethanol (0.05 mM). The two control conditions used to qualify and normalize test compound dose-response curves were as follows: High Control=25 ng/mL LPS, […], 0.5% DMSO, Low Control=25 ng/mL, LPS, 0.5% DMSO.
THP-1 cells were diluted to provide a suspension at a concentration of 1.0×10^6 cells/mL with the total volume of suspension required to enable the desired number of assay plates. The growth media was supplemented with PMA (5 ng/mL final concentration) and the cells were incubated at 37° C. under a humidified atmosphere of 5% CO2 for 40 h.
All media was carefully aspirated from each culture flask. The cells were washed carefully with 1×DPBS. The cells were then briefly digested with trypsin LE for 5 minutes at 23° C. and immediately resuspended in cell growth media. After resuspension, the cells were centrifuged at 1000 rpm for 3 minutes and the supernatant was discarded. The cells were resuspended in DPBS and once again centrifuged at 1000 rpm for 5 minutes. The supernatant was discarded and the cell pellet was resuspended in serum-free media supplemented with LPS (25 ng/mL final concentration) to enable the distribution of 30K THP-1 cells within 45 μL of media into each well of 384-well PDL-coated plates. The 384-well plates were then incubated at 37° C. under a humidified atmosphere of 5% CO2 for 2 h. Following this period, test compounds were dispensed by Tecan across the desired concentration range with all wells normalized to a final 0.5% DMSO concentration. The plates were then then incubated at 37° C. under a humidified atmosphere of 5% CO2 for 1 h. Following this period, 5 μL of the 5 mg/mL nigericin stock solution was added to each of the appropriate wells and plates were centrifuged at 1000 rpm for 30 seconds. The plates were the immediately reintroduced to the incubator at 37° C. under a humidified atmosphere of 5% CO2 for 2 h. After this time, 35 μL/well of supernatant was collected and transferred into v-bottom plate and centrifuged at 1000 rpm for 1 minute. These supernatant aliquots were analyzed using an IL-Iβ detection kit as described below. If needed, the test samples could be snap frozen and stored at −80° C. until analyzed.
To prepare each ELISA plate, capture antibody (mAb Mt175) was diluted with PBS to a final concentration of […] and then 20 μL of this solution was added to each well of the ELISA plate. Each plate was allowed to incubate overnight at 4° C. The next day, the capture antibody solution was removed and discarded. Each ELISA plate was washed 4 times with PBST followed by the addition of 25 µL/well of blocking buffer (Licor-927-40010) supplemented with 0.1% Tween 20. Each ELISA plate was then allowed to incubate for 1 hour at 23° C. […]

[1] = THP-1 cells, read-out: Activity
[2] = THP-1 cells, read-out: Activity (IC50 class)
[3] = Homo sapiens, THP-1, THP-1 cells, read-out: Activity (IC50 class)
[4] = Homo sapiens, THP-1, THP-1 cells, read-out: Activity

Cc1cnc(NC(=O)CN2CC3(CC3(F)F)c3cc(C4(F)CC4)ccc3C2=O)nc1 (single isomer, unassigned) [Example 25, N-(5-methylpyrimidin-2-yl)-2-[1′,1′-difluoro-6-(1-fluorocyclopropyl)-1-oxospiro[3H-isoquinoline-4,2′-cyclopropane]-2-yl]acetamide]
IC50 [1]: 61 nM | IC50 [2]: < 1000 nM

C[C@]1(O)C[C@@H](NC(=O)CN2CC3(CC3(F)F)c3cc(C4(F)CC4)ccc3C2=O)C1 (single isomer, unassigned) [Example 23, N-(3-cis-hydroxy-3-methylcyclobutyl)-2-[1′,1′-difluoro-6-(1-fluorocyclopropyl)-1-oxospiro[3H-isoquinoline-4,2′-cyclopropane]-2-yl]acetamide]
IC50 [3]: < 1000 nM | IC50 [1]: 32 nM

O=C(CN1CC2(CC2(F)F)c2cc(Br)ccc2C1=O)Nc1ncc2cn[nH]c2n1 (single isomer, unassigned) [Example 64, 2-(6-bromo-1′,1′-difluoro-1-oxospiro[3H-isoquinoline-4,2′-cyclopropane]-2-yl)-N-(1H-pyrazolo[3,4-d]pyrimidin-6-yl)acetamide]
IC50 [3]: < 1000 nM | IC50 [1]: 8 nM

O=C(CN1C[C@@]2(C[C@@H]2F)c2c(ccc(C(F)(F)F)c2F)C1=O)Nc1ncc(Cl)cn1 (single isomer, unassigned) [Example 13, 2-[(2′s,4r)-2′,5-difluoro-1-oxo-6-(trifluoromethyl)spiro[3H-isoquinoline-4,1′-cyclopropane]-2-yl]-N-(5-chloropyrimidin-2-yl)acetamide]
IC50 [1]: 232 nM | IC50 [2]: < 1000 nM

O=C(CN1CC2(CC2)c2cc(Br)ccc2C1=O)NC1CC(O)(C2CC2)C1 (single isomer, unassigned) [Example 56, 2-(6-bromo-1-oxospiro[3H-isoquinoline-4,1′-cyclopropane]-2-yl)-N-(3-cyclopropyl-3-hydroxycyclobutyl)acetamide]
IC50 [1]: 363 nM | IC50 [2]: < 1000 nM

C[C@]1(O)C[C@@H](NC(=O)CN2CC(C(F)(F)F)c3cc(I)ccc3C2=O)C1 (single isomer, unassigned) [Example 11, N-(3-cis-hydroxy-3-methylcyclobutyl)-2-(6-iodo-1-oxo-4-(trifluoromethyl)-3,4-dihydroisoquinolin-2(1H)-yl)acetamide]
IC50 [1]: 57 nM | IC50 [2]: < 1000 nM

Cc1cnc(NC(=O)CN2CC3(CC3(F)F)c3cc(C4(F)CC4)ccc3C2=O)nc1 (single isomer, unassigned) [Example 24, N-(5-methylpyrimidin-2-yl)-2-[1′,1′-difluoro-6-(1-fluorocyclopropyl)-1-oxospiro[3H-isoquinoline-4,2′-cyclopropane]-2-yl]acetamide]
IC50 [3]: 1000 to 10000 nM | IC50 [1]: 6090 nM

O=C(CN1CC2(CC2(F)F)c2cc(Br)ccc2C1=O)Nc1ncc(Cl)cn1 (single isomer, unassigned) [Example 16, N-(5-chloropyrimidin-2-yl)-2-[6-bromo-1′,1′-difluoro-1-oxospiro[3H-isoquinoline-4,2′-cyclopropane]-2-yl]acetamide]
IC50 [3]: 1000 to 10000 nM | IC50 [1]: 1590 nM

O=C(CN1CC2(CC2(F)F)c2c(ccc(C3CC3)c2F)C1=O)Nc1ncc(Cl)cn1 (single isomer, unassigned) [Example 34, N-(5-chloropyrimidin-2-yl)-2-[6-cyclopropyl-1′,1′,5-trifluoro-1-oxospiro[3H-isoquinoline-4,2′-cyclopropane]-2-yl]acetamide]
IC50 [3]: 1000 to 10000 nM | IC50 [1]: 15600 nM

O=C(CN1CC2(CC2)c2cc(Br)ccc2C1=O)Nc1nc2[nH]ncc2cc1F [Example 59, 2-(6-bromo-1-oxospiro[3H-isoquinoline-4,1′-cyclopropane]-2-yl)-N-[5-fluoro-1H-pyrazolo[3,4-b]pyridin-6-yl]acetamide]
IC50 [4]: 322 nM | IC50 [3]: < 1000 nM

O=C(CN1CC2(CC2)c2cc(C(F)(F)F)ccc2C1=O)Nc1ncc2cn[nH]c2n1 [Example 51, 2-[1-oxo-6-(trifluoromethyl)spiro[3H-isoquinoline-4,1′-cyclopropane]-2-yl]-N-(1H-pyrazolo[3,4-d]pyrimidin-6-yl)acetamide]
IC50 [4]: 181 nM | IC50 [3]: < 1000 nM

Cc1cnc(NC(=O)CN2C[C@]3(C[C@H]3F)c3cc(C4(F)CC4)ccc3C2=O)nc1 [Example 2, 2-[(2′R,4S)-2′-fluoro-6-(1-fluorocyclopropyl)-1-oxospiro[3H-isoquinoline-4,1′-cyclopropane]-2-yl]-N-(5-methylpyrimidin-2-yl)acetamide]
IC50 [4]: 18 nM | IC50 [3]: < 1000 nM

O=C(CN1CC2(CC2)c2cc(Br)ccc2C1=O)NC1CC(O)(C2CC2)C1 (single isomer, unassigned) [Example 57, 2-(6-bromo-1-oxospiro[3H-isoquinoline-4,1′-cyclopropane]-2-yl)-N-(3-cyclopropyl-3-hydroxycyclobutyl)acetamide]
IC50 [1]: 11100 nM | IC50 [2]: > 10000 nM

O=C(CN1CC2(CC2(F)F)c2cc(Br)ccc2C1=O)Nc1ncc2cn[nH]c2n1 (single isomer, unassigned) [Example 65, 2-(6-bromo-1′,1′-difluoro-1-oxospiro[3H-isoquinoline-4,2′-cyclopropane]-2-yl)-N-(1H-pyrazolo[3,4-d]pyrimidin-6-yl)acetamide]
IC50 [1]: 504 nM | IC50 [2]: < 1000 nM

Cc1cnc(NC(=O)CN2CC(C(F)(F)F)c3cc(C)ccc3C2=O)nc1 (centres unmarked) [Example 9, 2-(6-methyl-1-oxo-4-(trifluoromethyl)-3,4-dihydroisoquinolin-2(1H)-yl)-N-(5-methylpyrimidin-2-yl)acetamide]
IC50 [4]: 1540 nM | IC50 [3]: 1000 to 10000 nM

O=C(CN1C[C@]2(C[C@H]2F)c2cc(C(F)(F)F)ccc2C1=O)Nc1ncc2cn[nH]c2n1 (single isomer, unassigned) [Example 47, 2-[(2′s,4r)-2′-fluoro-1-oxo-6-(trifluoromethyl)spiro[3H-isoquinoline-4,1′-cyclopropane]-2-yl]-N-(1H-pyrazolo[3,4-d]pyrimidin-6-yl)acetamide]
IC50 [3]: < 1000 nM | IC50 [1]: 231 nM

Cc1cnc(NC(=O)CN2CC3(CC3(F)F)c3c(ccc(Br)c3F)C2=O)nc1 (single isomer, unassigned) [Example 33, N-(5-methylpyrimidin-2-yl)-2-[6-bromo-1′,1′,5-trifluoro-1-oxospiro[3H-isoquinoline-4,2′-cyclopropane]-2-yl]acetamide]
IC50 [1]: 55 nM | IC50 [2]: < 1000 nM

O=C(CN1CC2(CC2(F)F)c2c(ccc(Br)c2F)C1=O)Nc1nc2ccccn2n1 (single isomer, unassigned) [Example 30, N-([1,2,4]triazolo[1,5-a]pyridin-2-yl)-2-[6-bromo-1′,1′,5-trifluoro-1-oxospiro[3H-isoquinoline-4,2′-cyclopropane]-2-yl]acetamide]
IC50 [1]: 29200 nM | IC50 [2]: > 10000 nM

C[C@]1(O)C[C@@H](NC(=O)CN2CC(C(F)(F)F)c3cc(I)ccc3C2=O)C1 (single isomer, unassigned) [Example 10, N-(3-cis-hydroxy-3-methylcyclobutyl)-2-(6-iodo-1-oxo-4-(trifluoromethyl)-3,4-dihydroisoquinolin-2(1H)-yl)acetamide]
IC50 [3]: 1000 to 10000 nM | IC50 [1]: 4080 nM
